# Measured values published in publication PMC11002876, “KcsA-Kv1.x chimeras with complete ligand-binding sites provide improved predictivity for screening selective Kv1.x blockers” (The Journal of Biological Chemistry, 2024).
# Where two headings read alike, the source gives them in different places. Where a SMILES comes first, the peptide text is derived from it.
# What was measured:
# [1] = target: T1, KcsA-Kv1.1 T-only chimera (Streptomyces lividans, UniProt P0A334, A54E/A57S/G53E/G56E/I60S/L59F/P55A/Q58H/R52A/R64D/T61S/Y62I); assay: Phage-binding competition assay, KcsA-Kv1.1 T-only; parameters: species or system human Kv1.1 turret in Streptomyces lividans KcsA
# T1 sequence (P0A334 1-160 R52A/G53E/A54E/P55A/G56E/A57S/Q58H/L59F/I60S/T61S/Y62I/R64D): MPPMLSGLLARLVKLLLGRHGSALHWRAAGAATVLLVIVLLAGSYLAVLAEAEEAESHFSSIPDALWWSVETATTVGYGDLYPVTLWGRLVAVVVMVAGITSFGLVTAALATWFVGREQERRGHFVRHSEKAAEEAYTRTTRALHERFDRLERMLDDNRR
# Procedure: (§1) Phage stock solutions were diluted to working concentration with phage resuspension buffer supplemented with 2 mM DDM. For protein immobilization, the following amounts were used in a final volume of 50 μl/well: wt KcsA, 0.1 μg; KcsA-Kv1.1 T-only, 0.005 μg; KcsA-Kv1.1 T+F, 0.02 μg; KcsA-Kv1.2 T-only, 0.01 μg; KcsA-Kv1.2 T+F, 0.1 μg; KcsA-Kv1.3 T-only, 0.01 μg; and KcsA-Kv1.3 T+F, 0.1 μg. Protein samples were diluted in 50 μl of storage buffer (20 mM Tris pH8.0, 300 mM KCl, 2 mM DDM) and were added to the designated wells of a Pierce Clear, 96-Well Nickel Coated Plate (15442, Thermo Fisher Scientific), then incubated for 1 h at room temperature on a horizontal shaker at 130 rpm. The plate was blocked for 1 h at room temperature with 180 μl/well TBS-BSA supplemented with 1 mM DDM. Following blocking, the wells were washed 4× with washing buffer (300 μl TBS-Tween, 0.1% v/v) using a Wellwash Versa microplate washer (Thermo Fisher Scientific); then 50 μl phage solution (in TBS-BSA-Tween, 0.1% v/v, 2 mM DDM) at determined phage concentration was added to the wells and incubated for 1 h at room temperature on a horizontal shaker. The plate was washed 4× with washing buffer, then 50 μl anti-M13 IgG HRP (MA5-36125, Invitrogen) diluted to 1:2500 in TBS-Tween (0.1% v/v) was added to the wells and incubated for 1 h at room temperature. The plate was washed again 4× with 300 μl/well washing buffer. Finally, 50 μl/well 1-Step Ultra TMB-ELISA solution (34028, Thermo Fisher Scientific) was added to the wells, and the developing signal was stopped with 50 μl 1M HCl after 5 to 10 min. The light absorbance signal was read at 450 nm with Byonoy absorbance 96 plate reader (Byonoy GmbH).
# (§2) For protein immobilization, the following amounts were used in a final volume of 50 μl/well: KcsA-Kv1.1 T-only, 0.005 μg; KcsA-Kv1.1 T+F, 0.01 μg; KcsA-Kv1.2 T-only, 0.025 μg; KcsA-Kv1.2 T+F, 0.0125 μg; KcsA-Kv1.3 T-only, 0.01 μg; and KcsA-Kv1.3 T+F, 0.1 μg. Protein samples were diluted in storage buffer. Binding of given concentrations of relevant ligand-displaying phages quantified by light absorbance ([…]) were investigated in a similar manner as in phage ELISA-binding assay, while different concentrations of competing toxin test substances were applied simultaneously. The results were converted to percent inhibitions (percent displacement) of the indicator phage binding, and relative affinities of the tested toxins were assessed by plotting percent displacements against log concentrations and determining half maximal inhibitory concentrations (IC50) by sigmoidal curve fitting using “Sigmoidal dose-response (variable slope) with least squares method” algorithm in GraphPad Prism 8 using the following equation: Y=Bottom+Top−Bottom/1+10^(LogEC50−×)⋅HillSlope
# [2] = target: T2, KcsA-Kv1.1 T-only chimera (Streptomyces lividans, UniProt P0A334, R52A/G53E/A54E/P55A/G56E/A57S/Q58H/L59F/I60S/T61S/Y62I/R64D); assay: Phage-binding competition assay, KcsA-Kv1.1 T-only; parameters: species or system human Kv1.1 turret in Streptomyces lividans KcsA; conditions: for competition binding to KcsA-Kv1.1 T-only, in words: ShK-phage competition, native peptide, Fig. 8E (ligand-binding pattern); for Rank, T-only chimera (Kv1.1): rank by competition IC50 among ShK, KTX1, MTX
# T2 sequence (P0A334 1-160 R52A/G53E/A54E/P55A/G56E/A57S/Q58H/L59F/I60S/T61S/Y62I/R64D): T1 sequence (P0A334 1-160 R52A/G53E/A54E/P55A/G56E/A57S/Q58H/L59F/I60S/T61S/Y62I/R64D)
# Procedure: as §1, §2
# KCa3.1 = conditions: cited from earlier work
# Description: (§3) Peptide toxins of venomous animal origin as lead molecules for optimization may offer an advantage over small molecules in terms of potentially greater affinity and specificity. These miniproteins are usually up to 50 amino acids in length and can adopt distinct conformation with secondary structural elements stabilized by several disulfide bonds ([9], [10], [11]). Due to their considerable surface area, miniproteins can form stable complexes with target proteins through extensive interaction surfaces ([12], [13]). The miniprotein Kv1.3 blocker drug candidate, Dalazatide—a synthetic derivative ...
# Kv1.2 = conditions: cited from earlier work
# Description: as §3
# mouse Kv1.1 = conditions: cited from earlier work
# Description: as §3
# [3] = displacement of ShK-phage, KcsA-Kv1.1 T-only 0.005 μg/well on nickel-coated plate, mean ± SD (n = 3), NQ = not quantifiable, read-out: IC50, T-only chimera (Kv1.1)
SMILES,"IC50 [1, 3]","competition binding to KcsA-Kv1.1 T-only, in words [2]","Rank, T-only chimera (Kv1.1) [2]","competition binding to KcsA-Kv1.1 T-only, in words ([2]; listed as MTX1)","IC50 ([1]; ShK-phage competition, T-only KcsA-Kv1.1, value given in figure, sigmoidal fit to means of three replicates, read-out: IC50 (Fig. 8E))",selectivity for Kv1.3 over KCa3.1 (KCa3.1),selectivity for Kv1.3 over Kv1.2 (Kv1.2),selectivity for Kv1.3 over mouse Kv1.1 (mouse Kv1.1)
"CC[C@H](C)[C@H](NC(=O)[C@H](CCC(=O)O)NC(=O)[C@@H](NC(=O)CN)C(C)C)C(=O)N[C@@H](CC(N)=O)C(=O)N[C@H](C(=O)N[C@@H](CCCCN)C(=O)N[C@H]1CSSC[C@@H]2NC(=O)[C@H](CCCCN)NC(=O)CNC(=O)[C@H](Cc3ccccc3)NC(=O)[C@H](CCCNC(=N)N)NC(=O)[C@H](CCSC)NC(=O)CNC(=O)[C@H](C)NC(=O)[C@H](CC(=O)O)NC(=O)[C@H](CCCCN)NC(=O)[C@@H]3CSSC[C@@H](C(=O)N[C@H](C(=O)N4CCC[C@H]4C(=O)N[C@@H](CCCCN)C(=O)O)[C@@H](C)O)NC(=O)[C@H](Cc4c[nH]cn4)NC(=O)[C@H](CSSC[C@H](NC(=O)[C@H](CCC(N)=O)NC(=O)[C@@H]4CCCN4C(=O)[C@H](CO)NC(=O)CNC(=O)[C@H](CO)NC1=O)C(=O)N[C@@H](CC(C)C)C(=O)N[C@@H](CCCCN)C(=O)N1CCC[C@H]1C(=O)N3)NC(=O)[C@H](CCCCN)NC(=O)[C@H](CCCNC(=N)N)NC(=O)[C@H](CC(N)=O)NC(=O)[C@H](CCSC)NC2=O)C(C)C [KTX1, Kaliotoxin-1]",1.27 nM,ShK > KTX1 > MTX,2,–,–,–,–,–
"CC[C@H](C)[C@@H]1NC(=O)[C@@H]2CSSC[C@H](NC(=O)[C@H](CO)NC(=O)[C@@H](N)C(C)C)C(=O)N[C@@H]([C@@H](C)O)C(=O)NCC(=O)N[C@@H](CO)C(=O)N[C@@H](CCCCN)C(=O)N[C@@H](CC(=O)O)C(=O)N[C@@H](CSSC[C@@H](C(=O)N[C@@H](CCCCN)C(=O)N[C@H]3CSSC[C@@H](C(N)=O)NC(=O)CNC(=O)[C@H](Cc4ccc(O)cc4)NC3=O)NC(=O)[C@H](CO)NC(=O)[C@H](CCCCN)NC(=O)[C@H](CC(N)=O)NC1=O)C(=O)N[C@@H](Cc1ccc(O)cc1)C(=O)N[C@@H](C)C(=O)N1CCC[C@H]1C(=O)N[C@H]1CSSC[C@H](NC(=O)CNC(=O)[C@H]([C@@H](C)O)NC(=O)[C@H](CCC(N)=O)NC(=O)[C@H](CCCCN)NC(=O)[C@H](CCCNC(=N)N)NC1=O)C(=O)N1CCC[C@H]1C(=O)N[C@@H](CC(N)=O)C(=O)N[C@@H](C)C(=O)N[C@@H](CCCCN)C(=O)N2 [MTX, Maurotoxin] (HELM PEPTIDE1{V.S.C.T.G.S.K.D.C.Y.A.P.C.R.K.Q.T.G.C.P.N.A.K.C.I.N.K.S.C.K.C.Y.G.C.[am]}$PEPTIDE1,PEPTIDE1,3:R3-24:R3|PEPTIDE1,PEPTIDE1,9:R3-29:R3|PEPTIDE1,PEPTIDE1,13:R3-19:R3|PEPTIDE1,PEPTIDE1,31:R3-34:R3$$$V2.0; N-terminus and C-terminus assumed)",> 1000 nM,ShK > KTX1 > MTX,3,negligible binding,–,–,–,–
"CC[C@H](C)[C@@H]1NC(=O)[C@@H](NC(=O)[C@H](CO)NC(=O)[C@@H](N)CCCNC(=N)N)CSSC[C@@H](C(=O)O)NC(=O)[C@H]([C@@H](C)O)NC(=O)CNC(=O)[C@@H]2CSSC[C@@H]3NC(=O)[C@H](CCC(N)=O)NC(=O)[C@H](Cc4ccccc4)NC(=O)[C@H](C)NC(=O)[C@H]([C@@H](C)O)NC(=O)[C@H](CSSC[C@H](NC(=O)[C@H](Cc4ccccc4)NC(=O)[C@H](CO)NC(=O)[C@H](CC(C)C)NC(=O)[C@H](CCCNC(=N)N)NC(=O)[C@H](Cc4ccc(O)cc4)NC(=O)[C@H](CCCCN)NC(=O)[C@H](CCSC)NC(=O)[C@H](CO)NC(=O)[C@H](Cc4c[nH]cn4)NC(=O)[C@H](CCCCN)NC3=O)C(=O)N[C@@H](CCCNC(=N)N)C(=O)N[C@@H](CCCCN)C(=O)N[C@@H]([C@@H](C)O)C(=O)N2)NC(=O)[C@H](CCCNC(=N)N)NC(=O)[C@H](CO)NC(=O)[C@H](CCCCN)NC(=O)[C@@H]2CCCN2C(=O)[C@H]([C@@H](C)CC)NC(=O)[C@H]([C@@H](C)O)NC(=O)[C@H](CC(=O)O)NC1=O [ShK, Stichodactyla toxin]",–,ShK > KTX1 > MTX,1,–,0.317 nM,–,–,–
"CC[C@H](C)[C@H](NC(=O)[C@H](C)NC(=O)[C@H](C)NC(=O)[C@H](C)N)C(=O)N[C@@H](CO)C(=O)N[C@H]1CSSC[C@@H]2NC(=O)[C@H](CCCCN)NC(=O)CNC(=O)[C@H](CC(N)=O)NC(=O)[C@H](CCCCN)NC(=O)[C@@H]3CSSC[C@@H](C(N)=O)NC(=O)[C@H](Cc4ccc(O)cc4)NC(=O)[C@H](Cc4ccc(O)cc4)NC(=O)[C@@H]4CSSC[C@H](NC(=O)[C@H](CCCCN)NC(=O)[C@@H]5CCCN5C(=O)[C@@H]5CCCN5C(=O)[C@H](CSSC[C@H](NC(=O)[C@H](CCCCN)NC(=O)[C@H](CCCNC(=N)N)NC(=O)[C@H](CC(N)=O)NC(=O)[C@H](CCSC)NC2=O)C(=O)N[C@@H](CCCCN)C(=O)N4)NC(=O)[C@H](CCC(=O)O)NC(=O)[C@@H]2CCCN2C(=O)[C@H](CO)NC(=O)CNC(=O)[C@H](C(C)C)NC1=O)C(=O)N[C@@H](CCCNC(=N)N)C(=O)N[C@@H](C)C(=O)N[C@@H](CCC(N)=O)C(=O)NCC(=O)N3 [Vm24, Vm24 toxin]",–,–,–,–,–,limited selectivity,limited selectivity,limited selectivity
